# Tests used:
# Staphylococcus aureus [1] = assay: Antibacterial activity against Staphylococcus aureus ATCC 25923 assessed as reduction in bacterial growth at 20 uM in presence of 100 J/cm2 light irradiation by photosensitization assay; type: functional
# Escherichia coli [2] = assay: Antibacterial activity against Escherichia coli ATCC 25922 assessed as reduction in bacterial growth at 20 uM in presence of 100 J/cm2 light irradiation by photosensitization assay; type: functional
# Escherichia coli [3] = assay: Antibacterial activity against Escherichia coli K12 assessed as reduction in bacterial growth at 20 uM in presence of 6 J/cm2 light irradiation by photosensitization assay; type: functional
# Staphylococcus aureus [4] = assay: Antibacterial activity against methicillin-resistant Staphylococcus aureus ATCC 33591 assessed as reduction in bacterial growth at 20 uM in presence of 6 J/cm2 light irradiation by photosensitization assay; type: functional
# Acinetobacter baumannii [5] = assay: Antibacterial activity against Acinetobacter baumannii ATCC 17978 assessed as reduction in bacterial growth at 20 uM in presence of 6 J/cm2 light irradiation by photosensitization assay; type: functional
# Acinetobacter baumannii [6] = assay: Antibacterial activity against Acinetobacter baumannii ATCC 17978 assessed as reduction in bacterial growth at 10 uM in presence of 22.5 J/cm2 light irradiation by photosensitization assay; type: functional
# Pseudomonas aeruginosa [7] = assay: Antibacterial activity against Pseudomonas aeruginosa ATCC 27853 assessed as reduction in bacterial growth at 10 uM in presence of 100 J/cm2 light irradiation by photosensitization assay; type: functional
# Acinetobacter baumannii [8] = assay: Antibacterial activity against Acinetobacter baumannii ATCC 17978 assessed as reduction in bacterial growth at 2 uM in presence of 22.5 J/cm2 light irradiation by photosensitization assay; type: functional
# Pseudomonas aeruginosa [9] = assay: Antibacterial activity against Pseudomonas aeruginosa ATCC 27853 assessed as reduction in bacterial growth at 60 ug/ml in presence of 100 J/cm2 light irradiation by photosensitization assay; type: functional; settings: dose 60 µg/ml
# Staphylococcus aureus [10] = assay: Antibacterial activity against Staphylococcus aureus ATCC 29213 assessed as reduction in bacterial growth at 300 ug/ml in presence of 12 J/cm2 light irradiation by photosensitization assay; type: functional; settings: dose 300 µg/ml
# Escherichia coli [11] = assay: Antibacterial activity against Escherichia coli assessed as reduction in bacterial growth at 100 uM in presence of 100 J/cm2 light irradiation by photosensitization assay; type: functional
# Escherichia coli [12] = assay: Antibacterial activity against Escherichia coli assessed as reduction in bacterial growth at 20 uM in presence of 80 J/cm2 light irradiation by photosensitization assay; type: functional, organism-based
# Staphylococcus aureus [13] = assay: Antibacterial activity against Staphylococcus aureus ATCC 29213 assessed as reduction in bacterial growth at 5 uM in presence of 18 J/cm2 light irradiation by photosensitization assay; type: functional
# Enterococcus faecalis [14] = assay: Antibacterial activity against Staphylococcus aureus ATCC 29212 assessed as reduction in bacterial growth at 14 uM in presence of 25 J/cm2 light irradiation by photosensitization assay; type: functional
# Staphylococcus aureus [15] = assay: Antibacterial activity against Staphylococcus aureus assessed as reduction in bacterial growth at 200 ug/ml in presence of 180 J/cm2 light irradiation by photosensitization assay; type: functional; settings: dose 200 µg/ml
# Staphylococcus aureus [16] = assay: Antibacterial activity against Staphylococcus aureus ATCC 29213 assessed as reduction in bacterial growth at 0.25 uM in presence of 8 J/cm2 light irradiation by photosensitization assay; type: functional
# Staphylococcus aureus [17] = assay: Antibacterial activity against Staphylococcus aureus ATCC 29213 assessed as reduction in bacterial growth at 8 uM in presence of 30 J/cm2 light irradiation by photosensitization assay; type: functional
# Escherichia coli [18] = assay: Antibacterial activity against Escherichia coli assessed as reduction in bacterial growth at 8 uM in presence of 30 J/cm2 light irradiation by photosensitization assay; type: functional
# Staphylococcus aureus [19] = assay: Antibacterial activity against methicillin-resistant Staphylococcus aureus ATCC 33591 assessed as reduction in bacterial growth at 1 uM in presence of 8 J/cm2 light irradiation by photosensitization assay; type: functional
# Staphylococcus aureus [20] = assay: Antibacterial activity against methicillin-resistant Staphylococcus aureus ATCC 33591 assessed as reduction in bacterial growth at 8 uM in presence of 30 J/cm2 light irradiation by photosensitization assay; type: functional
# Staphylococcus aureus [21] = assay: Antibacterial activity against Staphylococcus aureus MCC 2408 assessed as reduction in bacterial growth at 50 ug/ml in presence of 58.49 J/cm2 light irradiation by photosensitization assay; type: functional; settings: dose 50 µg/ml
# Staphylococcus aureus [22] = assay: Antibacterial activity against Staphylococcus aureus MCC 2408 assessed as reduction in bacterial growth at 16 uM in presence of 54 J/cm2 light irradiation by photosensitization assay; type: functional
# Staphylococcus aureus [23] = assay: Antibacterial activity against Staphylococcus aureus MCC 2408 assessed as reduction in bacterial growth at 400 uM in presence of 72 J/cm2 light irradiation by photosensitization assay; type: functional
# Staphylococcus aureus [24] = assay: Antibacterial activity against Staphylococcus aureus MCC 2408 assessed as reduction in bacterial growth at 0.62 ug/ml in presence of 18 J/cm2 light irradiation by photosensitization assay; type: functional; settings: dose 0.62 µg/ml
# Staphylococcus aureus [25] = assay: Antibacterial activity against Staphylococcus aureus […] assessed as reduction in bacterial growth at 64 ug/ml in presence of 18 J/cm2 light irradiation by photosensitization assay; type: functional; settings: dose 64 µg/ml
# Pseudomonas aeruginosa [26] = assay: Antibacterial activity against Pseudomonas aeruginosa ATCC 27853 assessed as reduction in bacterial growth at 10 to 20 ug/ml in presence of 18 J/cm2 light irradiation by photosensitization assay; type: functional; settings: dose 10-20 µg/ml
# Pseudomonas aeruginosa [27] = assay: Antibacterial activity against Pseudomonas aeruginosa ATCC 27853 assessed as reduction in bacterial growth at 16 uM in presence of 54 J/cm2 light irradiation by photosensitization assay; type: functional
# Pseudomonas aeruginosa [28] = assay: Antibacterial activity against Pseudomonas aeruginosa ATCC 27853 assessed as reduction in bacterial growth at 400 uM in presence of 72 J/cm2 light irradiation by photosensitization assay; type: functional
# Pseudomonas aeruginosa [29] = assay: Antibacterial activity against Pseudomonas aeruginosa ATCC 27853 assessed as reduction in bacterial growth at 7000 ug/ml in presence of 18 J/cm2 light irradiation by photosensitization assay; type: functional; settings: dose 7000 µg/ml
# Enterococcus faecalis [30] = assay: Antibacterial activity against Enterococcus faecalis assessed as reduction in bacterial growth at 16 uM in presence of 54 J/cm2 light irradiation by photosensitization assay; type: functional
# Staphylococcus aureus [31] = assay: Antibacterial activity against Staphylococcus aureus assessed as reduction in bacterial growth at 20 uM in presence of 80 J/cm2 light irradiation by photosensitization assay; type: functional
# Bacillus subtilis = assay: Antibacterial activity against Bacillus subtilis assessed as reduction in bacterial growth at 2 uM in presence of 22.5 J/cm2 light irradiation by photosensitization assay; type: functional
# Klebsiella aerogenes = assay: Antibacterial activity against Klebsiella aerogenes assessed as reduction in bacterial growth at 16 uM in presence of 54 J/cm2 light irradiation by photosensitization assay; type: functional
# Acinetobacter baumannii [32] = assay: Antibacterial activity against Acinetobacter baumannii ATCC BAA 747 assessed as reduction in bacterial growth at 2 uM in presence of 22.5 J/cm2 light irradiation by photosensitization assay; type: functional
# Staphylococcus aureus [33] = assay: Antibacterial activity against Staphylococcus aureus ATCC 25923 assessed as reduction in bacterial growth in presence of 6 J/cm2 light irradiation by photosensitization assay; type: functional
# Staphylococcus aureus [34] = assay: Antibacterial activity against Staphylococcus aureus ATCC 25923 assessed as reduction in bacterial growth at 5 ug/ml in presence of 97.65 J/cm2 light irradiation by photosensitization assay; type: functional; settings: dose 5 µg/ml
# Staphylococcus aureus [35] = assay: Antibacterial activity against Staphylococcus aureus ATCC 25923 assessed as reduction in bacterial growth at 50 ug/ml in presence of 58.49 J/cm2 light irradiation by photosensitization assay; type: functional; settings: dose 50 µg/ml
# Escherichia coli [36] = assay: Antibacterial activity against Escherichia coli ATCC 25922 assessed as reduction in bacterial growth in presence of 6 J/cm2 light irradiation by photosensitization assay; type: functional
# Pseudomonas aeruginosa [37] = assay: Antibacterial activity against Pseudomonas aeruginosa ATCC 27853 assessed as reduction in bacterial growth at 50 ug/ml in presence of 58.4 J/cm2 light irradiation by photosensitization assay; type: functional; settings: dose 50 µg/ml
# Pseudomonas aeruginosa [38] = assay: Antibacterial activity against Pseudomonas aeruginosa ATCC 27853 assessed as reduction in bacterial growth at 50 ug/ml in presence of 97.65 J/cm2 light irradiation by photosensitization assay; type: functional; settings: dose 50 µg/ml
smiles,measurement,setting,value
O=S(=O)(O)c1ccc(-c2c3nc(c(-c4ccc(S(=O)(=O)O)cc4)c4ccc([nH]4)c(-c4ccc(S(=O)(=O)O)cc4)c4nc(c(-c5ccc(S(=O)(=O)O)cc5)c5ccc2[nH]5)C=C4)C=C3)cc1,log(activity),Staphylococcus aureus [1],7
same,log(activity),Escherichia coli [2],7
CN(CCCOc1ccccc1NC(=O)Nc1ccc2ccccc2c1)CCN(C)c1ccc2nc3ccc(N(C)C)cc3[s+]c2c1.[Cl-],log(activity),Escherichia coli [3],3
same,log(activity),Staphylococcus aureus [4],4
same,log(activity),Acinetobacter baumannii [5],3
C1=Cc2nc1c(-c1ccccc1)c1ccc([nH]1)c(-c1ccccc1)c1nc(c(-c3ccccc3)c3ccc([nH]3)c2-c2ccccc2)C=C1,log(activity),Staphylococcus aureus [1],5
same,log(activity),Escherichia coli [2],3
CN(CCN(C)c1ccc2nc3ccc(N(C)C)cc3[s+]c2c1)Cc1ccc(-c2cc3cc([N+](=O)[O-])ccc3[nH]2)cc1.Cl,log(activity),Escherichia coli [3],4
same,log(activity),Staphylococcus aureus [4],3
same,log(activity),Acinetobacter baumannii [5],5
CCNc1cc2[s+]c3cc(NCC)c(C)cc3nc2cc1C.[Cl-],log(activity),Acinetobacter baumannii [6],3
same,log(activity),Pseudomonas aeruginosa [7],3
same,log(activity),Acinetobacter baumannii [8],6
CN(CCN(C)c1ccc2nc3ccc(N(C)C)cc3[s+]c2c1)C(=O)c1ccc(-c2cc3cc([N+](=O)[O-])ccc3[nH]2)cc1.Cl,log(activity),Escherichia coli [3],6
same,log(activity),Staphylococcus aureus [4],6
same,log(activity),Acinetobacter baumannii [5],4
O=[N+]([O-])c1ccc(-c2c3nc(c(-c4ccc([N+](=O)[O-])cc4)c4ccc([nH]4)c(-c4ccc([N+](=O)[O-])cc4)c4nc(c(-c5ccc([N+](=O)[O-])cc5)c5ccc2[nH]5)C=C4)C=C3)cc1,log(activity),Pseudomonas aeruginosa [9],2
Cc1cc(N(C)C)cc2[s+]c3cc(N(C)C)cc(C)c3nc12.[Cl-],log(activity),Staphylococcus aureus [10],99%
CN(C)c1ccc2nc3ccc(N4CCN(CCCOc5ccccc5NC(=O)Nc5ccc6ccccc6c5)CC4)cc3[s+]c2c1.[Cl-],log(activity),Escherichia coli [3],3
same,log(activity),Staphylococcus aureus [4],3
C[n+]1cccc(-c2c3nc(c(-c4ccc[n+](C)c4)c4ccc([nH]4)c(-c4ccc[n+](C)c4)c4nc(c(-c5ccc[n+](C)c5)c5ccc2[nH]5)C=C4)C=C3)c1,log(activity),Escherichia coli [11],6
same,log(activity),Escherichia coli [12],7
COc1cc(/C=C/C(=O)CC(=O)/C=C/c2ccc(O)c(OC)c2)ccc1O [CURCUMIN],log(activity),Staphylococcus aureus [13],7
same,log(activity),Enterococcus faecalis [14],10
CC1=C(CCC(=O)O)c2cc3[nH]c(cc4nc(cc5[nH]c(cc1n2)c(C)c5C(C)O)C(C)=C4C(C)O)c(C)c3CCC(=O)O (stereo not drawn) [HEMATOPORPHYRIN],log(activity),Staphylococcus aureus [15],>6
same,log(activity),Escherichia coli [11],<6
Cc1cc(O)c2c(=O)c3c(O)cc(O)c4c5c(O)cc(O)c6c(=O)c7c(O)cc(C)c8c1c2c(c34)c(c78)c65 [HYPERICIN],log(activity),Staphylococcus aureus [16],>6
same,log(activity),Staphylococcus aureus [17],>6
same,log(activity),Escherichia coli [18],0.06
same,log(activity),Staphylococcus aureus [19],>0.6
same,log(activity),Staphylococcus aureus [20],>0.6
CN(C)c1ccc2nc3ccc(N(C)C)cc3[s+]c2c1.[Cl-] [METHYLENE BLUE ANHYDROUS],log(activity),Staphylococcus aureus [21],2.38
same,log(activity),Staphylococcus aureus [22],5
same,log(activity),Staphylococcus aureus [23],7.3
same,log(activity),Staphylococcus aureus [24],6
same,log(activity),Staphylococcus aureus [25],6
same,log(activity),Pseudomonas aeruginosa [26],6
same,log(activity),Pseudomonas aeruginosa [27],1.1
same,log(activity),Pseudomonas aeruginosa [28],4.1
same,log(activity),Pseudomonas aeruginosa [29],6
same,log(activity),Enterococcus faecalis [30],0.7
C[n+]1ccc(-c2c3nc(c(-c4cc[n+](C)cc4)c4ccc([nH]4)c(-c4cc[n+](C)cc4)c4ccc([nH]4)c(-c4cc[n+](C)cc4)c4nc2C=C4)C=C3)cc1 [TMPYP4],log(activity),Staphylococcus aureus [31],7
same,log(activity),Staphylococcus aureus [1],7
same,log(activity),Escherichia coli [2],7
Cc1cc2nc3ccc(N(C)C)cc3[s+]c2cc1N.[Cl-] [TOLONIUM CHLORIDE],log(activity),Bacillus subtilis,>6
same,log(activity),Klebsiella aerogenes,>8
same,log(activity),Acinetobacter baumannii [32],3
same,log(activity),Staphylococcus aureus [33],5.83
same,log(activity),Staphylococcus aureus [34],2.66
same,log(activity),Staphylococcus aureus [35],2.21
same,log(activity),Escherichia coli [36],0.08
same,log(activity),Pseudomonas aeruginosa [37],2.2
same,log(activity),Pseudomonas aeruginosa [38],2.36

# Source: ChEMBL document CHEMBL6109045, “Photosensitizer associated with efflux pump inhibitors as a strategy for photodynamic therapy against bacterial resistance” (2025)
